Assay results published in patent US11931343B2 (ARCUS BIOSCIENCES, INC., priority 2018, dated 2024).
pIC50: −log10 of the molar value.

Biological target: T1, human CD73 (Homo sapiens, UniProt P21589)
T1 sequence (P21589 27-549): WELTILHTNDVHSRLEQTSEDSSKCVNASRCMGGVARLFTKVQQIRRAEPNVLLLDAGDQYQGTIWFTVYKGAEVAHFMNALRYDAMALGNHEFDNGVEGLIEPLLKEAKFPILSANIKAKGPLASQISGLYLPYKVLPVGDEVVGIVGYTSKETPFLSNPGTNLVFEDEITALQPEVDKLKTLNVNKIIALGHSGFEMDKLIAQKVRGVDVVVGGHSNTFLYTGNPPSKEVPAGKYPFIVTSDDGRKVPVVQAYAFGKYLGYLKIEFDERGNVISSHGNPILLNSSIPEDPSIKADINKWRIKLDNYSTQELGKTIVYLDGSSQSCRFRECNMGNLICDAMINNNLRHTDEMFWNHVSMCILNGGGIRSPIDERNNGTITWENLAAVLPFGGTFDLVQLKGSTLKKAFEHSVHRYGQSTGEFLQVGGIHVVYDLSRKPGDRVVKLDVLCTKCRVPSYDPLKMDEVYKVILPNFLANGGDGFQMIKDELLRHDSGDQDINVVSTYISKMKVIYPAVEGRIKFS
Assay: Inhibition of Ecto-5′-nucleotidase (CD73) activity in CHO-CD73 cells, phosphate release from AMP
Format: cell-based
Conditions: CHO-K1 cells stably transfected with human CD73; 25 μM AMP; 50 minutes, 37° C.; read-out: Potency: CD73 IC50

pIC50 | Structure (SMILES)
> 7.00 | Cc1cc(Cl)ccc1Cn1nccc1-c1cc(F)c2nnn(-c3ccc4cn[nH]c4c3)c2c1 [Example 95]
> 7.00 | N#Cc1ccc(Cn2nccc2-c2cc3c(cc2Cl)nnn3-c2ccc3cn[nH]c3c2)cc1 [Example 150]
6.00 to 7.00 | O=c1[nH]c2ccc(-n3nnc4c(F)cc(-c5ccnn5Cc5ccc(F)cn5)cc43)cc2[nH]1 [Example 173]
< 6.00 | N#Cc1ccc(Cn2nccc2-c2cc3c(c(N)nn3-c3ccc4[nH]c(=O)[nH]c4c3)[n+]([O-])c2)cc1 [Example 365]
6.00 to 7.00 | Cc1cc2nnn(-c3ccc4cn[nH]c4c3)c2cc1-c1ccnn1Cc1ccc(C#N)cc1 [Example 384]
6.00 to 7.00 | Clc1ccc(Cn2nccc2-c2cnc3nnn(-c4ccc5cn[nH]c5c4)c3c2)c(Cl)c1 [Example 134]
> 7.00 | N#Cc1ccc(Cn2nccc2-c2cc(F)c3nnn(-c4ccc5[nH]c(=O)[nH]c5c4)c3c2)c(CO)c1 [Example 297]
< 6.00 | N#Cc1ccc(Cn2nccc2-c2cc(F)c3nnn(-c4ccc5[nH]c(=O)[nH]c5c4)c3c2)c(C(=O)N2CC(O)C2)c1 [Example 308]
6.00 to 7.00 | CC(c1ccc(Cl)cn1)n1nccc1-c1cc(Cl)c2nnn(-c3ccc4cn[nH]c4c3)c2c1 (stereo not shown) [Example 374]
6.00 to 7.00 | N#Cc1ccc(Cn2nccc2-c2cc(F)c3nnn(-c4ccc5[nH]c(=O)[nH]c5c4)c3c2)c(CN2CC(C(=O)O)C2)c1 [Example 294]
< 6.00 | c1cc(-c2ccc3nnn(-c4ccc5cn[nH]c5c4)c3c2)n(CC2CC2)n1 [Example 47]
6.00 to 7.00 | N#Cc1ccc(Cn2nccc2-c2cc(F)c3c(N)nn(-c4ccc5cn[nH]c5c4)c3c2)cc1 [Example 389]
< 6.00 | N#Cc1ccc(Cn2nccc2-c2cc(F)c3nnn(-c4ccc5[nH]c(=O)[nH]c5c4)c3c2)c(CN[C@H]2CCOC2)c1 [Example 277]
6.00 to 7.00 | Cn1c(-c2ccnn2Cc2ccc(C#N)cc2)cc2c(nnn2-c2ccc3cn[nH]c3c2)c1=O [Example 356]
6.00 to 7.00 | O=c1[nH]c2ccc(-n3nnc4c(F)cc(-c5ccnn5Cc5ccc(Cl)c(F)c5)cc43)cc2[nH]1 [Example 192]
6.00 to 7.00 | N#Cc1ccc(Cn2nccc2-c2cnc3c(Cl)nn(-c4ccc5cn[nH]c5c4)c3c2)cc1 [Example 371]
> 7.00 | Cc1cc(C#N)ccc1Cn1nccc1-c1cc(Cl)c2nnn(-c3ccc4[nH]c(=O)[nH]c4c3)c2c1 [Example 270]
6.00 to 7.00 | N#Cc1ccc(Cn2cccc2-c2cc(F)c3nnn(-c4ccc5[nH]c(=O)[nH]c5c4)c3c2)cc1 [Example 328]
< 6.00 | O=c1[nH]c2ccc(-n3nnc4c(F)cc(-c5ccnn5CCc5cccc(Cl)c5)cc43)cc2[nH]1 [Example 215]
< 6.00 | Cc1cc(-n2nccc2-c2cc(Cl)c3nnn(-c4ccc5[nH]c(=O)[nH]c5c4)c3c2)ccc1Cl [Example 263]
6.00 to 7.00 | COCc1cc(C#N)ccc1Cn1nccc1-c1cc(F)c2nnn(-c3ccc4[nH]c(=O)[nH]c4c3)c2c1 [Example 279]
< 6.00 | CN(C)S(=O)(=O)Nc1nn(-c2ccc3cn[nH]c3c2)c2cc(-c3ccnn3Cc3ccc(C#N)cc3)cnc12 [Example 424]
> 7.00 | N#Cc1ccc(Cn2nccc2-c2cnc3c(N)nn(-c4cc5[nH]c(=O)[nH]c5cc4F)c3c2)c(F)c1 [Example 339]
6.00 to 7.00 | Cn1nc(-c2ccc3[nH]c(=O)[nH]c3c2)c2cc(-c3ccnn3Cc3ccc(C#N)cc3)ncc21 [Example 327]
6.00 to 7.00 | O=c1[nH]c2ccc(-n3nnc4c(Cl)cc(-c5ccnn5-c5cccc(C(F)(F)F)c5)cc43)cc2[nH]1 [Example 222]
6.00 to 7.00 | c1ccc(Cn2nccc2-c2cc3c(cn2)nnn3-c2ccc3cn[nH]c3c2)cc1 [Example 128]

pIC50 | Structure (SMILES)
6.00 to 7.00 | Cc1cc(-n2nccc2-c2cc(Cl)c3nnn(-c4ccc5[nH]c(=O)[nH]c5c4)c3c2)cc(C)n1 [Example 300]
6.00 to 7.00 | Cc1cccc(-n2nccc2-c2cc3c(cc2F)nnn3-c2ccc3cn[nH]c3c2)c1 [Example 393]
< 6.00 | Cc1cccc(-n2ncc(C)c2-c2cc(F)c3nnn(-c4ccc5cn[nH]c5c4)c3c2)c1 [Example 416]
6.00 to 7.00 | O=c1[nH]c2ccc(-n3nnc4ncc(-c5ccnn5Cc5ccc(Cl)cc5Cl)cc43)cc2[nH]1 [Example 158]
> 7.00 | N#Cc1ccc(Cn2nccc2-c2cc3c(cc2F)nnn3-c2ccc3cn[nH]c3c2)cc1 [Example 378]
6.00 to 7.00 | N#Cc1ccc(Cn2nccc2-c2cc(F)c3nnn(-c4ccc5[nH]c(=O)[nH]c5c4)c3c2)c(C(F)(F)F)c1 [Example 271]
< 6.00 | N#Cc1ccc(Cn2nccc2-c2cc(F)c3nnn(-c4ccc5c(COCCO)n[nH]c5c4)c3c2)cc1 [Example 355]
< 6.00 | N#Cc1cccc(-n2nccc2-c2cc3c(cc2Cl)nnn3-c2ccc3cn[nH]c3c2)c1 [Example 403]
6.00 to 7.00 | N#Cc1ccc(Cn2nccc2-c2cc3c(cnn3-c3ccc4cn[nH]c4c3)c(=O)[nH]2)c(F)c1 [Example 338]
6.00 to 7.00 | O=c1[nH]c2ccc(-n3nnc4c(F)cc(-c5ccnn5Cc5ccc(Cl)cc5)cc43)cc2[nH]1 [Example 231]
6.00 to 7.00 | Cc1cc(Cl)cnc1Cn1nccc1-c1cc(Cl)c2nnn(-c3ccc4[nH]c(=O)[nH]c4c3)c2c1 [Example 225]
6.00 to 7.00 | CC(C)(O)C1CN(Cc2cc(C#N)ccc2Cn2nccc2-c2cc(F)c3nnn(-c4ccc5[nH]c(=O)[nH]c5c4)c3c2)C1 [Example 305]
6.00 to 7.00 | N#Cc1ccc(Cn2nccc2-c2cc3c(cc2CO)nnn3-c2ccc3cn[nH]c3c2)cc1 [Example 421]
< 6.00 | O=c1[nH]c2ccc(-n3nnc4c(F)cc(-c5ccnn5Cc5ccncn5)cc43)cc2[nH]1 [Example 212]
6.00 to 7.00 | O=c1[nH]c2ccc(-n3nnc4c(F)cc(-c5ccnn5Cc5ccc6[nH]ncc6c5)cc43)cc2[nH]1 [Example 223]
> 7.00 | Cc1ccc(Cn2nccc2-c2cc(F)c3nnn(-c4ccc5cn[nH]c5c4)c3c2)c(Cl)c1 [Example 97]
< 6.00 | O=c1[nH]c2ccc(-n3ncc4cnc(-c5ccnn5Cc5ccc(Cl)cn5)cc43)cc2[nH]1 [Example 153]
< 6.00 | N#Cc1ccc(Cn2nccc2-c2cc(F)c3nnn(-c4ccc5oc(=O)[nH]c5c4)c3c2)cc1 [Example 166]
6.00 to 7.00 | Cc1nn(-c2ccc3cn[nH]c3c2)c2cc(-c3ccnn3Cc3ccc(C#N)cc3)c[n+]([O-])c12 [Example 360]
6.00 to 7.00 | N#Cc1ccc(Cn2nccc2-c2cc(C#N)c3nnn(-c4ccc5cn[nH]c5c4)c3c2)cc1 [Example 114]
6.00 to 7.00 | N#Cc1ccc(Cn2nccc2-c2cc3c(nnn3-c3ccc4cn[nH]c4c3)[nH]c2=O)cc1 [Example 372]
6.00 to 7.00 | COc1ccc(Cn2nccc2-c2cc3c(cn2)nnn3-c2ccc3[nH]c(=O)[nH]c3c2)c(Cl)c1 [Example 248]
> 7.00 | N#Cc1ccc(Cn2nccc2-c2cc(F)c3nnn(-c4ccc5[nH]c(=O)[nH]c5c4)c3c2)c(Cl)c1 [Example 235]
> 7.00 | Oc1cccc(-n2nnc3c(Cl)cc(-c4ccnn4Cc4ccccc4)cc32)c1 [Example 9, 3-[6-(1-Benzyl-1H-pyrazol-5-yl)-4-chloro-1H-1,2,3-benzotriazol-1-yl]phenol]
> 7.00 | Fc1cc(-c2ccnn2Cc2ccc(Cl)cn2)cc2c1nnn2-c1ccc2cn[nH]c2c1 [Example 101]
6.00 to 7.00 | N#Cc1ccc(Cn2nccc2-c2cc3c(c(N)nn3-c3ccc4cn[nH]c4c3)[n+]([O-])c2)cc1 [Example 362]
